Assay results reported in PMC5218480 (PLoS ONE, 2017).

Test system: MV-4-11 cells
Test: Gene expression microarray analysis (Affymetrix PrimeView) and GSEA
Format: cell-based, human
Conditions: ProbeSet 11758779_at; LIST B

Nc1ncn([C@@H]2O[C@H](CO)[C@@H](O)[C@H]2O)c(=O)n1 [azacitidine]
RFU, TMEM50B: 84.99 RFU
